Tests used:
[1] = test system: 786-O (human renal cell carcinoma cancer cells); assay: In vivo tumor growth inhibition, 786-O xenograft; parameters: species or system BALB/c nude mice; details: HC-7366 single agent, 3 mg/kg twice daily (FIG. 58)
Experimental: 786-O (human renal cell carcinoma cancer cells): Female 6-8 weeks old BALB/c nude mice were inoculated subcutaneously on the right flank with 786-O tumor cells (5×10^6) in 0.1 ml of RPMI1640 medium without serum for tumor development. […] For the DC101 combination study, DC101 (murine monoclonal anti-VEGFR2 antibody) was dosed at 15 mg/kg twice a week by intraperitoneal injection.
(§1) [formula] • 2.2.2 Tumor Measurements: The measurement of tumor size was conducted three times weekly with a caliper and recorded. The tumor volume (mm^3) was estimated using the formula: TV=a×b^2/2, where “a” and “b” is long and short diameters of a tumor, respectively. Tumor volume was calculated using the formula [tumor volume (mm^3)=π/6×length×width^2).
(§2) Regression was calculated using the formula=100×ΔT/T initial, if ΔT<0. Animals with 0 mm^3 tumor volume (no measurable tumor) for three consecutive measurements were considered as complete responders and animals with 50% tumor regressions were partial responders.
Female 6-8 weeks old BALB/c nude mice were inoculated subcutaneously on the right flank with 786-O tumor cells (5×10^6) in 0.1 ml of RPMI1640 medium without serum for tumor development (see Example 6). […]

[2] = test system: FaDu (human head and neck cancer cells); assay: In vivo tumor growth inhibition, FaDu xenograft; parameters: species or system BALB/c nude mice
Experimental: FaDu (human head and neck cancer cells): Female 6-8 weeks old BALB/c nude mice were inoculated subcutaneously on the right flank with FaDu tumor cells (5×10^6) in 0.1 ml of EMEM medium without serum for tumor development. The treatments were started when the mean tumor size reached approximately 194 mm^3 at Day 21 post inoculation and continued until end of study by twice daily oral gavage dosing of HC-7366 at listed doses (vehicle, 0.3 mg/kg HC-7366, 1 mg/kg HC-7366, 3 mg/kg HC-7366, 10 mg/kg HC-7366, or 30 mg/kg HC-7366, FIG. 11-13).
as §1, §2

[3] = test system: KG-1 (human AML cancer cells); assay: In vivo tumor growth inhibition, KG-1 xenograft; parameters: species or system NOD SCID mice; details: 1 and 3 mg/kg twice daily oral
Experimental: KG-1 (human AML cancer cells): Female 6-8 weeks old NOD SCID mice were inoculated subcutaneously on the right flank with KG1 tumor cells (5×10^6) in RPMI 1640 without serum for tumor development. The treatments were started when the mean tumor size reached approximately 194 mm^3 at Day 20 after cell inoculation and continued until end of study by twice daily oral gavage dosing of HC-7366 at listed doses (vehicle, 0.3 mg/kg HC-7366, 1 mg/kg HC-7366, 3 mg/kg HC-7366, 10 mg/kg HC-7366, or 30 mg/kg HC-7366, FIG. 17).
as §1, §2

[4] = test system: ASNS, PSAT1, PHGDH, PUMA, S100A8/A9 in KG-1 tumors; assay: Tumor IHC, KG-1 tumors; format: in vivo, NOD SCID mice
Experimental: Immunohistochemical analysis was carried out on tumors that were collected at the end of the study described in Example 6. Formalin-fixed paraffin-embedded samples were sectioned at 5 μm thickness and mounted on Superfrost Plus microscope slides (Fisher Scientific). All immunohistochemical (IHC) staining was performed on Bond Rx auto-stainer (Leica Biosystems) using the conventional TSA-amplified detection system. Primary antibodies used were as follows: a-ASNS (Cell Signaling Technology #92479), a-PUMA (Cell Signaling Technology #98672), a-PSAT1 (Proteintech #10501-1-AP), a-PHGDH (Proteintech #14719-1-AP), HIF-1a-Novus Biologicals NB 100-479, HIF-2a-Novus Biologicals NB100-122SS, and GLUT-1-EMB Biosciences 07-1401. TSA-conjugated Alexa488, Alexa 568 and Alexa647 fluorophores from Invitrogen (#B40953, #B40956, and #B40958) were used at 1:500 dilution. Slides were counterstained with DAPI and cover slipped using Mowiol anti-fade mounting media (Sigma #D2522).
Slides were imaged with Aperio Versa 200 (Leica Biosystems) whole-slide scanner using 10×/0.32NA objective, and the data were analyzed using custom-written macros in ImageJ/FIJI (NIH). Briefly, 150 μm of outer edges of the tumor sections and necrotic regions (determined by lack of 4′,6-diamidino-2-phenylindole (DAPI) signal or presence of condensed DNA) were eliminated from the analysis. Gaussian-blurred DAPI channel was used to measure the area of the tumor tissue. Scans of immune-staining were processed to remove background, then total intensity value above appropriate threshold levels was measured and normalized to tissue area. All graphing and statistics (one-way ANOVA and pair-wise comparisons) were performed using Prism GraphPad.
Slides were deparaffinized, rehydrated and heat mediated antigen retrieval was conducted with AR6 buffer (Akoya). Slides were blocked with Roche diagnostics antibody diluent (Fisher) and stained with primary antibodies for 1 hr at 110 rpm. After washing, horseradish peroxidase (HRP)-conjugated secondary antibodies were added for 10 mins at 110 rpm. After washing, OPAL detection dye (Akoya) was added for a static 10 min incubation. Antigen retrieval was performed post OPAL staining, followed by DAPI staining and slide covering. Multispectral images were captured on the Polaris imaging system (Akoya) and spectral unmixing, cell segmentation and phenotyping was performed using Inform Tissue Finder software (Akoya). Imaging data was converted into .csv files and imported into Flowjo for analysis of S100A8/A9 percent positive cells. Primary antibodies used were rabbit anti-human/mouse S100A8/A9 (Clone RM1038, Abcam ab288715, paired with Opal 570).

[5] = test system: human AML cells of model CTG-2229; assay: AML PDX in vivo study, flow cytometry of blood, spleen, bone marrow; parameters: species or system NCG mice; details: 1 mg/kg PO/BID×28, all tissues
Experimental: Sub-lethally irradiated NCG mice were inoculated with 2×10^6 human AML cells of model CTG-2229. Mice were monitored post AML inoculation to assess human AML engraftment using huCD45/muCD45/huCD33/huCD3 antibodies and BD TruCount™ beads. When individual animals had ≥20% live huCD45 cells in the bone marrow, they were randomized to treatment cohorts. For the efficacy study, animals were administered (n=13/group) with vehicle control, HC-7366 at 1 mg/kg, 10 mg/kg or 30 mg/kg PO/BID×28, or Venetoclax at 100 mg/kg PO/QD×28. Terminal blood, spleen, and bone marrow samples were collected for flow cytometry (FIG. 87). Tolerability was assessed by body weight loss, lethality, and clinical signs of adverse treatment-related side effects. Body weights were measured twice weekly.

[6] = end of study (day 27), highest induction at 1 and 3 mg/kg

CNC(=O)c1ncn2cc(-c3c(F)ccc(NS(=O)(=O)c4cc(Cl)cnc4OC)c3F)ncc12 [HC-7366, 6-(3-((5-chloro-2-methoxypyridine)-3-sulfonamido)-2,6-difluorophenyl)-N-methylimidazo[1,5-a]pyrazine-1-carboxamide]
TGI % [1]: ~78% | tumor regression ([2]; 1 mg/kg twice daily oral): 33% | TGI ([2]; all doses): significant TGI | effect on tumor growth [3]: tumor stasis | protein levels of S100A8/A9 ([4]; 1 and 3 mg/kg doses, day 27): potently reduced | PUMA levels ([4]; day 27): not changed | ASNS by IHC [4, 6]: potently induced | PHGDH by IHC [4, 6]: potently induced | PSAT1 by IHC [4, 6]: potently induced | myeloid restricted precursor (CD34+CD33+) and mature myeloid cells (CD34−CD33+) [5]: significantly decreased
